Experimental data published in US6355799B1, “Substituted benzene compounds, process for their preparation, and herbicidal and defoliant compositions containing them” (ISK Americas Incorporated, priority 1997, dated 2002).

Legend:
Assay type in all cases: in vivo
[1] = tested on: velvetleaf (Abutilon theophrasti, ABUTH); test: Post-emerge test, greenhouse herbicide activity screening; details: post-emerge, 14 days after application, rating scale 0-100
In short: (§1)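 Fourteen days after spraying, crop and weed injury was graded visually from 0, no effect, to 100, every plant dead. Test substances were dissolved in acetone and applied at 15–1000 g ai/ha with a flat-fan nozzle. Application was either pre-emergence, one day after sowing, or post-emergence at the 2–3 leaf stage.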

[2] = tested on: green foxtail (Setaria viridis, SETVI); test: as above; details: post-emerge, 14 days after application, rating scale 0-100
In short: as §1

[3] = tested on: ivyleaf morningglory (Ipomoea hederacea, IPOHE); test: as above; details: post-emerge, 14 days after application, rating scale 0-100
In short: as §1

[4] = tested on: common ragweed (Ambrosia artemisizfolia L., AMBEL); test: as above; details: post-emerge, 14 days after application, rating scale 0-100
In short: as §1

[5] = tested on: redroot pigweed (Amaranthus retroflexus, AMARE); test: as above; details: post-emerge, 14 days after application
In short: as §1

[6] = tested on: johnsongrass (Sorghum halepense, SORHA); test: as above; details: post-emerge, 14 days after application, rating scale 0-100
In short: as §1

[7] = tested on: large crabgrass (Digitaria sanguinalis, DIGSA); test: as above; details: post-emerge, 14 days after application, rating scale 0-100
In short: as §1

[8] = tested on: lambsquarters (Chenopodium album, CHEAL); test: as above; details: post-emerge, 14 days after application, rating scale 0-100
In short: as §1

[9] = tested on: sicklepod (Cassia obtusifolia, CASOB); test: as above; details: post-emerge, 14 days after application, rating scale 0-100
In short: as §1

[10] = tested on: barnyardgrass (Echinochloa crus-galli, ECHCG); test: as above; details: post-emerge, 14 days after application, rating scale 0-100
In short: as §1

[11] = tested on: upland rice (Oryza sp., var. Tebonnet, RICE); test: Post-emerge test, crop safety; details: post-emerge, 14 days after application, rating scale 0-100
In short: (§2)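 Sandy loam pots; pre-emerge: sown 1 d pre-spray, surface-watered after, then bottom-watered. Post-emerge: sown 8–21 d before, 2–3 leaf stage, + 0.25% v/v NIS, bottom-watered. Acetone, 187 l/ha track spray, 15–1000 g ai/ha. 0–100 injury score, day 14.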

[12] = tested on: field corn (Zea mays L., var. Dekalb 535, CORN); test: Post-emerge test, crop safety; details: post-emerge, 14 days after application, rating scale 0-100
In short: as §2

[13] = tested on: velvetleaf (Abutilon theophrasti, ABUTH); test: Pre-emerge test, greenhouse herbicide activity screening; details: phytotoxicity rating 0-100, 14 days after application
In short: as §2

[14] = tested on: green foxtail (Setaria viridis, SETVI); test: as above; details: phytotoxicity rating 0-100, 14 days after application
In short: as §2

[15] = tested on: ivyleaf morningglory (Ipomoea hederacea, IPOHE); test: as above; details: phytotoxicity rating 0-100, 14 days after application
In short: as §2

[16] = tested on: common ragweed (Ambrosia artemisizfolia L., AMBEL); test: as above; details: phytotoxicity rating 0-100, 14 days after application
In short: as §2

[17] = tested on: johnsongrass (Sorghum halepense, SORHA); test: as above; details: phytotoxicity rating 0-100, 14 days after application
In short: as §2

[18] = tested on: large crabgrass (Digitaria sanguinalis, DIGSA); test: as above; details: phytotoxicity rating 0-100, 14 days after application
In short: as §2

[19] = tested on: lambsquarters (Chenopodium album, CHEAL); test: as above; details: phytotoxicity rating 0-100, 14 days after application
In short: as §2

[20] = tested on: sicklepod (Cassia obtusifolia, CASOB); test: as above; details: phytotoxicity rating 0-100, 14 days after application
In short: as §2

[21] = tested on: barnyardgrass (Echinochloa crus-galli, ECHCG); test: as above; details: phytotoxicity rating 0-100, 14 days after application
In short: as §2

[22] = tested on: upland rice (Oryza sp., var. Tebonnet, RICE); test: Pre-emerge test, crop safety; details: crop damage rating 0-100, 14 days after application
In short: (§3)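 Plants grown in 10 cm pots of sandy loam mix received acetone-dissolved compounds through a moving flat-fan nozzle. Doses ranged from 15 to 1000 g ai/ha. Pre-emerge pots were seeded one day earlier, post-emerge pots 8–21 days earlier. Fourteen days on, each pot was graded 0–100 for damage.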

[23] = tested on: field corn (Zea mays L., var. Dekalb 535, CORN); test: Pre-emerge test, crop safety; details: crop damage rating 0-100, 14 days after application
In short: as §3

[24] = tested on: redroot pigweed (Amaranthus retroflexus, AMARE); test: Pre-emerge test, greenhouse herbicide activity screening; details: phytotoxicity rating 0-100, 14 days after application
In short: as §2

COC(=O)N(C(=O)OC)c1c(OC)c(Cl)cc(F)c1-n1c(=O)cc(C(F)(F)F)n(C)c1=O [4-2]
phytotoxicity rating ABUTH ([1]; 63 g ai/ha): 70
phytotoxicity rating ABUTH ([1]; 250 g ai/ha): 100
phytotoxicity rating SETVI ([2]; 63 g ai/ha): 0
phytotoxicity rating SETVI ([2]; 250 g ai/ha): 20
phytotoxicity rating IPOHE ([3]; 63 g ai/ha): 70
phytotoxicity rating IPOHE ([3]; 250 g ai/ha): 100
phytotoxicity rating AMBEL ([4]; 63 g ai/ha): 0
phytotoxicity rating AMBEL ([4]; 250 g ai/ha): 30
phytotoxicity rating AMARE ([5]; 63 g ai/ha, rating scale 0-100 (0 no damage, 100 complete death)): 50
phytotoxicity rating AMARE ([5]; 250 g ai/ha, rating scale 0-100): 85
phytotoxicity rating SORHA ([6]; 63 g ai/ha): 0
phytotoxicity rating SORHA ([6]; 250 g ai/ha): 0
phytotoxicity rating DIGSA ([7]; 63 g ai/ha): 0
phytotoxicity rating DIGSA ([7]; 250 g ai/ha): 0
phytotoxicity rating CHEAL ([8]; 63 g ai/ha): 40
phytotoxicity rating CHEAL ([8]; 250 g ai/ha): 95
phytotoxicity rating CASOB ([9]; 63 g ai/ha): 0
phytotoxicity rating CASOB ([9]; 250 g ai/ha): 40
phytotoxicity rating ECHCG ([10]; 63 g ai/ha): 0
phytotoxicity rating ECHCG ([10]; 250 g ai/ha): 0
phytotoxicity rating RICE (crop damage) ([11]; 63 g ai/ha): 0
phytotoxicity rating RICE (crop damage) ([11]; 250 g ai/ha): 30
phytotoxicity rating CORN (crop damage) ([12]; 63 g ai/ha): 0
phytotoxicity rating CORN (crop damage) ([12]; 250 g ai/ha): 10
Pre-emerge Herbicidal Activity ABUTH ([13]; 63 g ai/ha): 100
Pre-emerge Herbicidal Activity ABUTH ([13]; 250 g ai/ha): 100
Pre-emerge Herbicidal Activity SETVI ([14]; 63 g ai/ha): 70
Pre-emerge Herbicidal Activity SETVI ([14]; 250 g ai/ha): 100
Pre-emerge Herbicidal Activity IPOHE ([15]; 63 g ai/ha): 0
Pre-emerge Herbicidal Activity IPOHE ([15]; 250 g ai/ha): 100
Pre-emerge Herbicidal Activity AMBEL ([16]; 63 g ai/ha): 30
Pre-emerge Herbicidal Activity AMBEL ([16]; 250 g ai/ha): 100
Pre-emerge Herbicidal Activity SORHA ([17]; 63 g ai/ha): 0
Pre-emerge Herbicidal Activity SORHA ([17]; 250 g ai/ha): 70
Pre-emerge Herbicidal Activity DIGSA ([18]; 63 g ai/ha): 40
Pre-emerge Herbicidal Activity DIGSA ([18]; 250 g ai/ha): 90
Pre-emerge Herbicidal Activity CHEAL ([19]; 63 g ai/ha): 100
Pre-emerge Herbicidal Activity CHEAL ([19]; 250 g ai/ha): 100
Pre-emerge Herbicidal Activity CASOB ([20]; 63 g ai/ha): 0
Pre-emerge Herbicidal Activity CASOB ([20]; 250 g ai/ha): 80
Pre-emerge Herbicidal Activity ECHCG ([21]; 63 g ai/ha): 0
Pre-emerge Herbicidal Activity ECHCG ([21]; 250 g ai/ha): 80
Pre-emerge Herbicidal Activity RICE ([22]; 63 g ai/ha): 10
Pre-emerge Herbicidal Activity RICE ([22]; 250 g ai/ha): 20
Pre-emerge Herbicidal Activity CORN ([23]; 63 g ai/ha): 0
Pre-emerge Herbicidal Activity CORN ([23]; 250 g ai/ha): 5
Pre-emerge Herbicidal Activity AMARE ([24]; 63 g ai/ha): 100
Pre-emerge Herbicidal Activity AMARE ([24]; 250 g ai/ha): 100
